The values that follow come from article PMC10933920, “Synthesis and Anti-Inflammatory Activity of Ferulic Acid-Sesquiterpene Lactone Hybrids” (Molecules, 2024).

A word on the IC50: it is the concentration at which inhibition is half-maximal. One may read the solubility as the concentration that dissolves in the medium under given conditions.

Data set [1] concerns primary lung fibroblasts derived from patients with IPF and non-diseased controls. Details: method as in PMID 33730605. As to conditions: unstimulated fibroblasts, 0–10 µM ACT001; cited from earlier work.
The subject of data set [2] is LPS-induced expression of IL-1β, IL-6 and iNOS in RAW264.7 cells. Put plainly: qRT-PCR of pro-inflammatory cytokine gene expression after LPS stimulation. It counts as cell-based, Mouse. As to conditions: RAW264.7 cells pre-treated 2 h, LPS 1 μg/mL 6 h, RT-PCR, 2 μM. From the text: Inflammatory factors, including TNF-α, IL-1β, and IL-6, are involved in and accelerate inflammatory responses during inflammatory progression. In addition, iNOS (Nitric oxide synthase)-derived monocytes contribute to macrophage recruitment in the lung, and pulmonary-derived iNOS is detrimental during acute lung injury. Moreover, observations indicate that inhibiting iNOS can reduce inflammation in the early stages of the bleomycin model of acute lung injury. Therefore, the effective suppression of inflammation is considered an effective marker for the treatment of inflammation. To establish the efficacy of those compounds suppressing inflammatory procession, we tested pro-inflammatory cytokines that are released from the RAW264.7 cells upon LPS stimulation.
Total RNA was isolated using TRIzol reagent (Takara, Ōtsu-shi, Japan) and then transcribed into cDNA using a transcriptor cDNA synthesis kit (TransGen Biotech, Beijing, China) according to the manufacturer’s instructions. Quantitative real-time PCR was performed with TransStart® Green qPCR SuperMix (TransGen Biotech, China). The conditions for the real-time PCR reaction were as follows: 94 °C, 30 s; 94 °C, 5 s; 60 °C, 30 s; 40 cycles. The primers for this research are listed in Supplementary Material Table S1.
Figure 2 Anti-inflammation of 1–6 in RAW264.7 Cells. Expression of proinflammatory cytokines in RAW264.7 cells use RT-PCR. Cells (1 × 10^6 cells/well) were seeded into 6-well plates and then pro-treated with 1–6 for 2 h. Cells were then challenged with LPS (1 μg/mL) or medium alone for 6 h and Total RNA was extracted from cells with Trizol reagent. TNF-α: tumor necrosis factor-α; IL-1β:Interleukin-1β; L-6: Interleukin-6. Data were analyzed by One-Way ANOVA. *: p < 0.05; **: p < 0.01. ns: no significance.

The subject of a further data set is RAW264.7 cells. The experiment in a line: CCK-8 cell viability (cytotoxicity) assay. It counts as cell-based, Mouse. The protocol: CCK-8 Cell Proliferation was used to confirm the non-cytotoxic dose of those derivatives in RAW264.7 cells. However, IC50 values of those compounds show visible difference in vitro (Table 1). Considering the safety of compound 6 in RAW264.7 cells, a follow-up experiment was carried out at the concentration of 2 μM.
The toxicity of those compounds was determined by the CCK-8 assay. RAW264.7 cells were seeded in a 96-well plate at a density of 2 × 10^5/mL and a volume of 100 μL/well. After incubation for 12 h at 37 °C, the cells were then incubated with compounds at concentrations of 1.25, 2.5, 5, 10, 20, 40 and 80 μM for 24 h, followed by the addition of 10 μL CCK-8 solution to each well, and the plates were further incubated for 2 h at 37 °C. The absorbance at a wavelength of 450 nm was measured using a microplate reader (Bio-Rad Laboratories, Inc., Hercules, CA, USA).

Data set [3] concerns BLM-induced acute lung injury in C57BL/6J mice. Put plainly: Bleomycin-induced acute lung injury model. To be noted: compound 6 10 mg/kg i.p. daily for 14 days. The format is in vivo. The protocol: To further confirm the anti-inflammation effect of compound 6 in vivo, we made the acute-lung-injury model in C57/6j mice using bleomycin. […] To further investigate the protective effect of 6 by BLM-induced ALI, the pathological changes in lung tissues were studied (Figure 5).
C57BL/6J mice (male) were purchased from Vital River Laboratories (Beijing, China). All procedures were conducted according to the Nankai University Guidelines on Animal Care, and the experimental protocol was approved by the Institutional Animal Protection Committee of the Nankai University (Tianjing, China, NO. 2022-SYDWLL-000342). Animals were sheltered under standard conditions with food and water provided ad libitum. Experiments were conducted on 8-week-old male mice, randomly divided into 4 groups: Control (Con), ALI (bleomycin), Dex (dexamethasone) and compound 6. For bleomycin-induced lung injury, mice were sedated, and a single dose of intratracheal bleomycin (4 mg/kg; Selleckchem, Houston, TX, USA) in sterile PBS. 6 was administered daily for 14 days via intraperitoneal injections (i.p) (100 μL/mouse of […] 6 in PBS). Dexamethasone (2 mg/kg) was administered orally. The mice were monitored and their weight was measured daily. After 14 days, the mice were killed with anesthetic overdose and exsanguinated by cutting the abdominal aorta before the collection of lungs.
Body weight variations were calculated from the measured weights at each time point (days 1–14), including before the sacrifice of the mice reaching the endpoints. To avoid a potential bias by studying the animals with the better outcomes, animals reaching endpoints were included in the calculation of the weight variation and survival rates.
Figure 4 Effect of compound 6 on body weight and survival after bleomycin-induced acute lung injury in mice. After bleomycin (4 mg/kg, 25 μL), mice were treated (i.p) daily with compound 6 (10 mg/kg, 100 μL) for 14 days. Body weight variations ((A), n = 12) and percentage (%) of mouse survival ((B), n = 5–12) were compared between the four groups. (Values are means ± SEM, ** p < 0.01). […]

The nature of data set [4]: Release of prodrug into active drug in HEPES buffer. It counts as physicochemical. As to conditions: HEPES buffer pH 7.4, 37 °C, HPLC; read-out: T1/2 (conversion of prodrug 6 into compound 3) (converted). The protocol:
The Michael addition reaction has emerged as an effective synthetic strategy to improve the water solubility and pharmaceutical efficacy of active drug compounds [34]. […] In addition, the use of Michael addition products can also serve to modulate the release rate of active drugs, thereby enabling better control over the pharmacological effects of such compounds. Thus, the experiment of converting the prodrug compound (6) into compound (3) was evaluated in a HEPES buffer solution with a pH of 7.4. Compound 6 rapidly releases compound 3 under these conditions. (Figure 6, T1/2 = 2 h).
A total of 10 mg of compound 6 was dissolved in 10 mL MeCN. A 0.5 mL volume of compound 6 solution was placed in 49.5 mL of HEPES at pH 7.4. The tubes were then incubated in a bath incubator at 37 °C. Samples were removed after 10 s, and the concentration of compound 6 and 3 was analyzed by HPLC.
Figure 6 The stability of compound 6 in pH7.4 HEPES buffer.

Data set [5] deals with TNF-α and IL-6 release from LPS-stimulated RAW264.7 cells. The experiment in a line: ELISA of pro-inflammatory cytokine protein levels in culture supernatant. As to conditions: RAW264.7 cells pre-treated 6 h, LPS 24 h. It counts as cell-based, Mouse. (ELISA stands for enzyme-linked immunosorbent assay.)
A short description of data set [6]: Aqueous solubility measurement. The format is physicochemical. The protocol: PTL, MCL and compounds 1–6 (0.1, 1, 10 mg) were dissolved in deionized water (pH = 7.0) until the solution was clear. The assays were measured at least in duplicate.
Details of data set [7]: method as in PMID 30208745. As to conditions: cited from earlier work.

Values after ≈ are worked out from the molar mass of the structure shown. “Also recorded” adds a separate entry of the source.

Turning to `CC1=C2CC[C@@](C)(O)[C@@H]2[C@H]2OC(=O)[C@@H](CN(C)C)[C@@H]2CC1` [ACT001], in data set [1], the IL-6 production entry is on record as “inhibited IL-6”.
Take `COc1cc(C=CC(=O)OCC2=CCCC3(C)OC3C3OC(=O)C(CN(C)C)C3CC2)ccc1O` [Compound 6, ((1aR,7aS,8R,10aS,10bS,E)-8-((dimethylamino)methyl)-1a-methyl-9-oxo-1a,2,3,6,7,7a,8,9,10a,10b-decahydrooxireno[2′,3′:9,10]cyclodeca[1,2-b]furan-5-yl)methyl (E)-3-(4-hydroxy-3-methoxyphenyl)acrylate 2-hydroxypropane-1,2,3-tricarboxylate]: the “gene expression of pro-inflammatory cytokines (IL-1β, IL-6, iNOS)” value in data set [2] is reported as “comparable activities; also recorded: could significantly reduce inflammation of RAW264.7 cells induced by LPS”. In the data set with RAW264.7 cells (Mus musculus, RAW264.7, 24 h, RAW264.7 cells, CCK-8, 24 h incubation, means of three independent experiments), this molecule yielded an IC50 of 6.95 ± 1.09 µM. Further, the “decline in cytotoxic effect compared to parent compound 3” value in the data set on RAW264.7 cells (RAW264.7 cell line, versus compound 3) turned out to be 2 fold. The survival rate result in data set [3] is “did not reverse the survival rate”. Further, in data set [3] (10 mg/kg), the “acute lung injury / lung pathology (H&E: inflammatory cell infiltration, edema, alveolar structure)” value was “reduced inflammatory cell infiltration and edema in lung tissue of mice, and improved alveolar structure; also recorded: ameliorated inflammatory cell infiltration and edema in lung tissue; also recorded: could significantly decrease the acute lung injury induced by bleomycin”; the body weight loss result is recorded as “prevented the weight loss significantly”. Further, the half-life at 10 µg/mL in data set [4] was 2 h. In addition, the “protein levels / release of pro-inflammatory cytokines (TNF-α and)” value in data set [5] was “could also inhibit the release of pro-inflammatory cytokines in vitro”. Further, the “water solubility (in words)” value in data set [6] (pH 7.0) is “outstanding water solubility; also recorded: significantly improved water solubility; also recorded: good water solubility; also recorded: more soluble than the reference compound 3”. The solubility in data set [6] (thermodynamic from solid, deionized water, pH = 7.0, at least in duplicate, read-out: Aqueous Solubility IC50) amounted to 2500 µg/mL (≈ 5.15 mM).
For `C/C1=C\CC[C@@]2(C)O[C@@H]2[C@H]2OC(=O)[C@H](CN(C)C)[C@@H]2CC1` [DMAPT], the “solubility relative to parent compound parthenolide” value in data set [7] is recorded as “more than 1000 times”.
